Test system: adrenocortical cells prepared from an adrenoma of a patient suffering from Conn's syndrome
Assay: cells
Settings: Homo sapiens, read-out: concentration effecting maximum inhibition of aldosterone secretion stimulated by angiotensin II

N#Cc1ccc(C2CCCc3cncn32)cc1 (racemic) [5-(p-cyanophenyl)-5,6,7,8-tetrahydroimidazo[1,5-a]pyridine]
IC (maximum): 0.1 µM

From patent US5057521A, “Use of bicyclic imidazole compounds for the treatment of hyperaldosteronism” (Ciba-Geigy Corporation, priority 1988, dated 1991)
